These results are taken from ChEMBL document CHEMBL1133694, “Hydroxamic acid derivatives as potent peptide deformylase inhibitors and antibacterial agents” (J Med Chem, 2000).

SMILES strings stand for the structures. In brackets after ≈: the same amount, converted by molar mass.

Experiment [1] relates to Escherichia coli. Description: In vitro antibacterial activity against isolated Escherichia coli DC2. Format: functional.
For the next experiment, the system named is Moraxella catarrhalis. Put plainly: In vitro antibacterial activity against isolated Moraxella catarrhalis RA21. It is filed as functional.
A further experiment concerns the target T1, Peptide deformylase (Escherichia coli, UniProt Q9JN24).
T1 sequence (Q9JN24 whole entry): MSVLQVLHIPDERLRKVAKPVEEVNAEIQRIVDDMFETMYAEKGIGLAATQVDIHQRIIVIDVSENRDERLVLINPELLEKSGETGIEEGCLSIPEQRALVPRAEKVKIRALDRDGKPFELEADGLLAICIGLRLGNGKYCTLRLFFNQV
Put plainly: Inhibitory activity against isolated Escherichia coli peptidyl deformylase (PDF) enzyme containing iron.

The next experiment relates to Bacillus subtilis. Description: In vitro antibacterial activity against Bacillus subtilis ATCC 585969. It is filed as functional.
The test system of a further experiment is Chlamydia pneumoniae. Put plainly: In vitro antibacterial activity against Chlamydia pneumoniae AR-39. Format: functional.
The test system of experiment [2] is Escherichia coli. Description: In vitro antibacterial activity against Escherichia coli ATCC 25922. It is filed as functional.
A further experiment concerns Enterococcus faecalis. Put plainly: In vitro antibacterial activity against Enterococcus faecalis ATCC 29212. Format: functional.
The test system of the next experiment is Enterococcus faecium. Put plainly: In vitro antibacterial activity against Enterococcus faecium vanA E25_1. It is filed as functional.
The subject of the next experiment is Haemophilus influenzae. Description: In vitro antibacterial activity against Haemophilus influenzae 11. It is filed as functional.
Experiment [3] relates to Mycoplasmoides pneumoniae. Put plainly: In vitro antibacterial activity against Mycoplasma pneumoniae ATCC 29342. Format: functional.
A further experiment concerns Pseudomonas aeruginosa. Description: In vitro antibacterial activity against Pseudomonas aeruginosa ATCC 27853. It is filed as functional.
The next experiment has as its system Staphylococcus aureus. Description: In vitro antibacterial activity against Staphylococcus aureus ATCC 25923. Format: functional.
For experiment [4], the system named is Streptococcus pneumoniae. Put plainly: In vitro antibacterial activity against Streptococcus pneumoniae ATCC 49619. It is filed as functional.
Experiment [5] deals with Stenotrophomonas maltophilia. Put plainly: In vitro antibacterial activity against Stenotrophomonas maltophilia 1AC739. It is filed as functional.
Experiment [6] concerns Streptococcus pneumoniae. Description: In vitro antibacterial activity against Streptococcus pneumoniae 1/1 (penicillin resistant). It is filed as functional.

For `CCCCC(CC(=O)NO)S(=O)(=O)c1ccc(Br)cc1` (stereo not drawn), the MIC was determined as 16 µg/mL (≈ 43.9 µM) against Escherichia coli [1] and 2 µg/mL (≈ 5.49 µM) against Moraxella catarrhalis.

As for `CCCC(CC(=O)NO)S(=O)(=O)c1ccccc1` (stereo not drawn), the MIC against Escherichia coli [1] was determined as 64 µg/mL (≈ 236 µM); with Moraxella catarrhalis, 4 µg/mL (≈ 14.7 µM). Besides, half-maximal inhibition at Peptide deformylase (IC50) was put at 160 nM.

In the case of `CCCCC(CC(=O)NO)[S+]([O-])c1ccc2ccccc2c1` (stereo not drawn), the MIC against Escherichia coli [1] is 2 µg/mL (≈ 6.26 µM); in the experiment on Moraxella catarrhalis, less than 0.25 µg/mL. The half-maximal inhibitory concentration (IC50) (commonly the point on the concentration scale where inhibition reaches its midpoint) on Peptide deformylase was determined as 64 nM.

`CCCCC(CC(=O)NO)[S+]([O-])c1cccc(OC)c1` (stereo not drawn): the figures for the MIC against Escherichia coli [1] and in the experiment with Moraxella catarrhalis were 4 µg/mL (≈ 13.4 µM) and 0.25 µg/mL (≈ 0.835 µM), respectively. The same molecule yielded a 50% inhibitory concentration (IC50) against Peptide deformylase of 94 nM.

For `CCCCC(CC(=O)NO)[S+]([O-])c1ccc(OC)cc1` (stereo not drawn), the values for the MIC against Escherichia coli [1] and in the experiment with Moraxella catarrhalis were 2 µg/mL (≈ 6.68 µM) and less than 0.25 µg/mL, respectively. This molecule yielded a half-inhibitory concentration (IC50) at Peptide deformylase of 99 nM.

Regarding `CCC(CC(=O)NO)S(=O)(=O)c1ccccc1` (stereo not drawn), the MIC in the experiment on Escherichia coli [1] and with Moraxella catarrhalis was more than 64 µg/mL in each case.

With `CCCCC(CC(=O)NO)S(=O)(=O)c1ccc(NC(C)=O)cc1` (stereo not drawn), the MIC with Escherichia coli [1] was 16 µg/mL (≈ 46.7 µM); in the experiment with Moraxella catarrhalis, 1 µg/mL (≈ 2.92 µM). The molecule further had a 50% inhibitory concentration (IC50) against Peptide deformylase of 11 nM.

Turning to `O=C(CC(c1ccccc1)S(=O)(=O)c1ccccc1)NO` (stereo not drawn), the results for the MIC against Escherichia coli [1] and in the experiment with Moraxella catarrhalis were 32 µg/mL (≈ 105 µM) and 8 µg/mL (≈ 26.2 µM), respectively. Also, 160 nM corresponded to half-maximal inhibition on Peptide deformylase (IC50).

Turning to `O=C(CC(c1ccc2c(c1)OCO2)S(=O)(=O)c1ccccc1)NO` (stereo not drawn), the MIC in the experiment on Escherichia coli [1] was 16 µg/mL (≈ 45.8 µM); in the experiment with Moraxella catarrhalis, 1 µg/mL (≈ 2.86 µM).

As for `CCCCC(CC(=O)NO)S(=O)(=O)Cc1ccccc1` (stereo not drawn), the figures for the MIC in the experiment with Escherichia coli [1] and in the experiment with Moraxella catarrhalis were 128 µg/mL (≈ 428 µM) and 16 µg/mL (≈ 53.4 µM), respectively. At Peptide deformylase, this molecule showed a concentration for half-maximal inhibition (IC50) of 190 nM.

Consider `O=C(CC(c1ccco1)S(=O)(=O)c1ccccc1)NO` (stereo not drawn), for which the figures for the MIC in the experiment with Escherichia coli [1] and against Moraxella catarrhalis were 32 µg/mL (≈ 108 µM) and 4 µg/mL (≈ 13.5 µM), respectively.

Regarding `CCCCC[C@H](CC(=O)NO)C(=O)N[C@H](C(=O)N1CCC[C@H]1CO)C(C)C` [ACTINONIN], the MIC was 8 µg/mL (≈ 20.8 µM) against Bacillus subtilis; 4 µg/mL (≈ 10.4 µM) in the experiment with Chlamydia pneumoniae; 64 µg/mL (≈ 166 µM) against Escherichia coli [2]; more than 128 µg/mL in the experiment on Enterococcus faecalis; 1 µg/mL (≈ 2.59 µM) in the experiment with Escherichia coli [1]; more than 128 µg/mL against Enterococcus faecium. The MIC against Haemophilus influenzae is 2 µg/mL (≈ 5.19 µM); in the experiment on Moraxella catarrhalis it was less than 0.06 µg/mL; in experiment [3] it was more than 64 µg/mL; in the experiment on Pseudomonas aeruginosa, more than 128 µg/mL; in the experiment with Staphylococcus aureus, 32 µg/mL (≈ 83 µM); against Streptococcus pneumoniae [4], 32 µg/mL (≈ 83 µM). Also, the MIC was determined as 16 µg/mL (≈ 41.5 µM) in [5] and 128 µg/mL (≈ 332 µM) with Streptococcus pneumoniae [6].
